Experimental data: article PMC4147338, “Host defense peptides for treatment of colorectal carcinoma – a comparative in vitro and in vivo analysis” (Oncotarget, 2014)

What was measured:
Type in all cases: cell-based, human
HCT116 cells = test: Calcein-AM cell viability staining, 24h; conditions: HCT116, 24h, 0.25-12.5 μM
Description: (§1) Figure 4 HDP-mediated cytotoxicity towards tumor cells Quantitative analysis of direct cytotoxicity towards tumor cells following a 24h incubation period with increasing HDP concentrations. Viability was assessed using Calcein-AM staining. Remaining viable tumor cells were quantified in comparison to untreated controls, which were set to be =1. […] Values are given as the mean x-fold increase ± SD. *p<0.05 vs. NK11; **p<0.01 vs. NK11.
(§2) This assay is based on Calcein-acetoxymethylester (Calcein-AM; Invitrogen, Darmstadt, Germany) staining to detect viable cells within a culture. Tumor and normal (PBL) cells (1-2 × 10^4 cells/well in triplicates) were seeded in 96-well plates and incubated overnight. Thereafter, peptides were added in increasing concentrations (ranging from 0.25 μM – 12.5 μM). Untreated cells served as living cell control. Medium was removed after 1h or 24h, respectively. Calcein-AM ([…]) was added and incubated for 30 min (37°C, 5% CO2). Analysis was performed on a fluorescence multi-well plate reader (Tecan Infinite® M200, Crailsheim, Germany) at an excitation wavelength of 485 nm (emission 535 nm). For estimation of cell viability, the relative fluorescence intensities of Calcein-AM-stained non-treated cells (=live control) were set to be 1, and fluorescence intensities of samples were calculated. Data of at least three independent experiments each performed in […] are given.

HROC24 cells [1] = test: Calcein-AM cell viability staining, 24h; conditions: HROC24, 24h, 0.25-12.5 μM
Description: as §1, §2

HROC18 cells = test: Apoptosis/necrosis assay, YO-PRO-1/PI flow cytometry; conditions: HROC18, 24h; for total killing: background cell death subtracted
Description: (§3) Figure 5 Apoptosis/necrosis assay and Western blot analysis (A, B) HROC18 and HROC24 cells were exposed to increasing HDP concentrations for a period of 24 hours. Tumor cells were stained with YO-PRO-1 for detecting early and late apoptotic tumor cells. Prior to flow cytometric analysis, PI was added to detect necrotic cells, as well. (A) Representative dot plots showing HDP-treated HROC24 cells at a concentration of 5 μM. Lower right quadrant: early apoptotic cells; upper right quadrant: late apoptotic cells; upper left quadrant: necrotic cells. (B) For cell death quantification, values of background cell death (=untreated controls) were subtracted from values of HDP-treated cells. Left panel: HROC24 cell; right panel: HROC18 cells. (C, E) Representative western blot results showing HDP-treated HROC24 cells (20 μg of total protein per lane). (D, F) Quantitative analysis of BAX and HSP90 expression in HDP-treated cells was done as described in material & methods. Expression levels of untreated cells were set to be =1 and x-fold increases of HDP-exposed cells were calculated. […] Values are given as mean ± SD.
(§4) Cell death was quantified by YO-PRO-1 (Invitrogen) and PI double staining. Selected tumor cells (HROC24 and HROC18, 1 × 10^4 cells/well) were seeded in 24-well plates and incubated overnight. Thereafter, peptides were added in increasing concentrations (ranging from 0.25 μM – 12.5 μM). Untreated cells served as living control. Following a 24-hour incubation period, supernatants were collected; cells were trypsinized and washed in PBS. Cells were stained with YO-PRO-1 (final concentration: 0.2 μM) for 20 min at room temperature. Prior to flow cytometric analysis, PI was added at a final concentration of 100 μg/ml. For cell death quantification, values of background cell death (=untreated controls) were subtracted from values of HDP-treated cells.

HROC24 cells [2] = test: as above; conditions: for Levels of viable HROC24 cells: 24h, higher concentrations
Description: as §3, §4

HROC107 cells = test: Calcein-AM cell viability staining, 24h; conditions: HROC107, 24h, 0.25-12.5 μM
Description: as §1, §2

HROC113 cells = test: Calcein-AM cell viability staining, 24h; conditions: HROC113, 24h, 0.25-12.5 μM
Description: as §1, §2

HROC60 cells = test: Calcein-AM cell viability staining, 24h; conditions: HROC60, 24h
Description: as §1, §2

CRC tumor cell lines = test: Calcein-AM cell viability staining, short-term exposure (1h); conditions: 0.25-12.5 μM, three separate experiments
Description: According to our classification, we included three PS^high (HCT116, HROC18, and HROC24), three PS^int (HROC40, HROC60, and HROC113), and two PS^low (HROC32 and HROC107) surface-exposed cell lines.
Figure 3 Short-term exposure of HDPs towards tumor cells (A) Representative pictures showing morphological changes in HROC24 cells upon HDP C7A-D21K exposure (25 μM). As a control, HROC24 cells were treated with NK11 (25 μM). (B) Quantitative analysis of direct cytotoxicity towards tumor cells. Tumor cells were treated for 1h with increasing HDP concentrations. Thereafter, viability was assessed using Calcein-AM staining. Remaining viable tumor cells were quantified in comparison to untreated controls, which were set to be =1. […] Values are given as the mean x-fold increase ± SD, *p<0.05 vs. NK11; **p<0.01 vs. NK11.
(§5) This assay is based on Calcein-acetoxymethylester (Calcein-AM; Invitrogen, Darmstadt, Germany) staining to detect viable cells within a culture. […] Analysis was performed on a fluorescence multi-well plate reader (Tecan Infinite® M200, Crailsheim, Germany) at an excitation wavelength of 485 nm (emission 535 nm). For estimation of cell viability, the relative fluorescence intensities of Calcein-AM-stained non-treated cells (=live control) were set to be 1, and fluorescence intensities of samples were calculated. […]

[3] = tested on: peripheral blood lymphocytes (PBL); test: Lymphotoxicity, Calcein-AM viability of PBL; conditions: PBL of six healthy donors, 24h, 0.25-12.5 μM
Description: Figure 6 Hemolysis and lymphotoxicity assays (A) Hemolytic activity of HDPs was determined by hemoglobin release from whole blood cells after 120 min incubation. Negative controls were left untreated whereas positive controls (=maximum lysis) were treated with 1% SDS. Hemolytic activity was quantified as described in the material and methods section. (B) PBLs were incubated in the presence of increasing HDP concentrations for a period of 24 hours. Viability was analyzed using Calcein-AM and quantified in comparison to untreated controls, which were set to be =1. […] Experiments were performed in triplicates. Values are given as the mean x-fold increase ± SD.
CRC cell lines HROC18, HROC24, HROC32, HROC40, HROC57, HROC60, HROC69, HROC80, HROC87, HROC107, and HROC113 were established in our lab from patients subsequent to surgical resection. […]
as §5

| Sequence | Lytic activity towards tumor cells (HCT116 cells) | Lytic activity towards tumor cells (HROC24 cells [1]) | total killing (HROC18 cells) | Levels of viable HROC24 cells (HROC24 cells [2]) | Killing of tumor cells / viability (HROC107 cells) | Killing of tumor cells / viability (HROC113 cells) | lysis vs. control (HROC60 cells) | Tumor killing, ranking (HROC18 cells) | Tumor killing compared with Melittin (HROC24 cells [2]; HROC24, 24h) | Direct cytotoxicity / tumor cell lysis after short-term exposure (CRC tumor cell lines) | Lymphocyte viability [3] |
| --- | --- | --- | --- | --- | --- | --- | --- | --- | --- | --- | --- |
| KILRGVAKKIMRTFLRRISKDILTGKK [Peptide C7A, NK-2 derivative, Cys7 replaced with Ala] | as effective as the reference compound Mellitin | as effective as the reference compound Mellitin | up to 60% | 25% |  |  |  |  |  |  |  |
| KILRGVAKKIMRTFLRRISKKILTGKK [Peptide C7A-D21K, C7A with Asp21 substituted by Lys] | as effective as the reference compound Mellitin | as effective as the reference compound Mellitin | 74% | 17% | most effective in killing these tumor cells | most effective in killing these tumor cells | > 40% | the most effective one and even slightly better than Melittin | as effective in tumor killing as Melittin |  |  |
| KISKRILTGKK [NK11, non-toxic control peptide based on NK-2, reference compound] |  |  |  |  |  |  |  |  |  | lack of NK11-mediated tumor cell lysis | did not affect lymphocyte viability |
